Experimental data from patent US20220184222A1, “BICYCLE TOXIN CONJUGATES AND USES THEREOF” (BicycleTx Limited, priority 2019, published 2022).
Starred links: 1 amine or outer side, 2 acyl side, 3 side chain; linkers in the order of their positions; H or OH if unused. Non-standard residues stand in square brackets, D forms with d. Residues, ends and D or L forms follow the SMILES beside them. *: point of attachment. Dolaproine = CO[C@@H]([C@@H]1CCCN1)[C@@H](C)C(=O)O; Dil = CC[C@H](C)[C@H](NC)[C@@H](CC(=O)O)OC; PABC = O=C(OCc1ccc(N[*:1])cc1)[*:2]; X1 = O=C(CCCC(=O)*)ON1C(=O)CCC1=O; X2 = C[C@@H](N*)[C@@H](O)c1ccccc1; Cit = NC(=O)NCCC[C@H](N)C(=O)O; NMeV = CN[C@H](C(=O)O)C(C)C

Experiments:
Format in all cases: in vivo, Mus musculus
[1] = test system: CTG-1502; test: Champions TumorGraft NSCLC PDX efficacy, model CTG-1502
Method: (§1) Mice were implanted subcutaneously into the left flank with tumor fragments from one of the various models. After tumors grew to an average of 150-300 mm^3, mice were treated by IV administration Q7Dx4 (n=2) with vehicle or 3 mg/kg of BT5528. Effects on tumor growth were evaluated by measuring percent tumor growth inhibition (% TGI), and the number of complete responders (CR), partial responders (PR), and tumor-free survivors (TFS). Tolerability was assessed by body weight loss, lethality, and clinical signs of adverse treatment-related side effects. Tumor volumes and body weights were measured twice a week.
(§2) Dosing solutions of BT5528 […] were pre-formulated. These dosing solutions were stored at −80° C. in the dark. On each day of dosing, a frozen aliquot of each test agent was thawed, stored at 2-8° C. and used for dosing.
(§3) The animals used in this study are described below: • Species: Mus musculus • Strain: Athymic Nude-Foxn1^nu (immune-compromised) • Source: Envigo (Indianapolis, Ind., USA) • Number of animals per group: 2 • Age and sex: At least 6-8 weeks of age at start of dosing, female • Weight: At least 18 grams at start of dosing • Acclimation period: 3 days
(§4) Stock mice were implanted with tumor cells from Champions TumorGraft® models CTG-0160, CTG-0170, CTG-0178, CTG-0192, CTG-0363, CTG-0808, CTG-0838, CTG-0848, CTG-1212, CTG-1502, CTG-1535, CTG-2011, CTG-2393, CTG-2539 or CTG-2540. After the tumors reached 1000-1500 mm^3, they were harvested and the tumor fragments (approximately 5×5×5 mm^3) were implanted SC in the left flank of the female study mice. Each animal was implanted with a specific passage lot and documented. Tumor growth was monitored twice a week using digital calipers and the tumor volume (TV) was calculated using the formula (0.52×[length×width^2]). When the TV reached an average volume of 150-300 mm^3, animals were matched by tumor size and assigned into Vehicle Control and treatment groups (n=2/group) and dosing was initiated on Day 0. After the initiation of dosing on Day 0, animals were weighed twice per week using a digital scale and TV was measured twice per week and also on the final day of study. The study was completed when the mean tumor volume of Vehicle Control reached 1500 mm^3 or up to Day 60, whichever occurred first.
(§5) Beginning on Day 0, animals were observed daily and weighed twice weekly using a digital scale; data including individual and mean gram weights, mean percent weight change versus Day 0 (% vD0) were recorded for each group and % vD0 plotted at study completion. […] Treatment resulting in a mean % vD0>20% and/or >10% mortality was considered above the maximum tolerated dose. Maximum mean % vD0 (weight nadir) for each treatment group was reported at study completion.
(§6) Inhibition of tumor growth was determined by calculating the percent TGI (100%×[1−(final MTV−initial MTV of a treated group)/(final MTV−initial MTV of the control group)]). Treatment started on Day 0.
(§7) Additional endpoints used to evaluate efficacy were: the number of complete responders (CR), partial responders (PR), and tumor-free survivors (TFS). PRs were considered exclusive of CRs, as were TFS.
(§8) Statistical analyses of anti-tumor efficacy were performed using one-way ANOVA followed by Dunnett's multiple comparisons test (GraphPad Prism version 8.2.0). Significant p-values=<0.05.
Animals were dosed according to the schedule on Table 7-1. The Vehicle Control reached endpoint on Day 17 and the study was terminated on Day 28.

[2] = test system: CTG-0363; test: Champions TumorGraft NSCLC PDX efficacy, model CTG-0363
Method: as §1, §2, §3, §4, §5, §6, §7, §8
(§9) Animals were dosed according to the schedule on Table 7-1. The study was terminated on Day 28.

[3] = test system: CTG-2393; test: Champions TumorGraft NSCLC PDX efficacy, model CTG-2393
Method: as §1, §2, §3, §4, §5, §6, §7, §8, §9

[4] = test system: CTG-0192; test: Champions TumorGraft NSCLC PDX efficacy, model CTG-0192
Method: as §1, with “After tumors grew to an average of 150-300 mm^3, mice were treated by IV administration Q7Dx4 (n=2) with vehicle or 3 mg/kg of BT5528.” left out
as §2, §3, §4, §5, §6, §7, §8
Animals were dosed according to the schedule on Table 7-1. The study was terminated on Day 34.

[5] = CTG-1502, 3 mg/kg IV Q7Dx4, Day 0-28
[6] = CTG-0363, 3 mg/kg IV Q7Dx4, Day 0-28
[7] = CTG-2393, 3 mg/kg IV Q7Dx4, Day 0-28
[8] = CTG-0192, 3 mg/kg IV Q7Dx5, Day 0-34

CC[C@H](C)[C@@H]([C@@H](CC(=O)N1CCC[C@H]1[C@H](OC)[C@@H](C)C(=O)N[C@H](C)[C@@H](O)c1ccccc1)OC)N(C)C(=O)[C@@H](NC(=O)[C@H](C(C)C)N(C)C(=O)OCc1ccc(NC(=O)[C@H](CCCNC(N)=O)NC(=O)[C@@H](NC(=O)CCCC(=O)ON2C(=O)CCC2=O)C(C)C)cc1)C(C)C [BT5528] (X1-V[Cit][PABC][NMeV]V[Dil][Dolaproine]-X2)
MTV (mean tumor volume) ([1]; 3 mg/kg IV Q7Dx4, Day 17): 976±229 mm^3
TGI ([1]; 3 mg/kg IV Q7Dx4, Day 17): 48%
# CR (complete responders) [1, 5]: 0/0/0
# PR (partial responders) [1, 5]: 0/0/0
# TFS (tumor-free survivors) [1, 5]: 0/0/0
% TGI ([1]; CTG-1502, 3 mg/kg IV Q7Dx4, Day 17): 48%
Day 17 Tumor Volume Mean TV ± SEM ([1]; CTG-1502, BT5528 3 mg/kg IV Q7Dx4, Day 17, n=2): 976 ± 229 mm^3
mean body weight loss ([2]; 3 mg/kg IV Q7Dx4): no mean body weight loss
MTV (mean tumor volume) ([2]; 3 mg/kg IV Q7Dx4, Day 28): 1609±18 mm^3
TGI ([2]; 3 mg/kg IV Q7Dx4, Day 28): 26%
# CR (complete responders) [2, 6]: 0/0/0
# PR (partial responders) [2, 6]: 0/0/0
# TFS (tumor-free survivors) [2, 6]: 0/0/0
% TGI ([2]; CTG-0363, 3 mg/kg IV Q7Dx4, Day 28): 26%
Day 28 Tumor Volume Mean TV ± SEM ([2]; CTG-0363, BT5528 3 mg/kg IV Q7Dx4, Day 28, n=2): 1609 ± 18 mm^3
MTV (mean tumor volume) ([3]; 3 mg/kg IV Q7Dx4, Day 28): 158±25 mm^3
TGI ([3]; 3 mg/kg IV Q7Dx4, Day 28): 107%
# CR (complete responders) [3, 7]: 0/0/0
# PR (partial responders) [3, 7]: 0/0/0
# TFS (tumor-free survivors) [3, 7]: 0/0/0
% TGI ([3]; CTG-2393, 3 mg/kg IV Q7Dx4, Day 28): 107%
Day 28 Tumor Volume Mean TV ± SEM ([3]; CTG-2393, BT5528 3 mg/kg IV Q7Dx4, Day 28, n=2): 158 ± 25 mm^3
maximum mean body weight loss ([4]; 3 mg/kg IV Q7Dx5, Day 7): 2.3%
MTV (mean tumor volume) ([4]; 3 mg/kg IV Q7Dx5, Day 34): 740±386 mm^3
TGI ([4]; 3 mg/kg IV Q7Dx5, Day 34): 36%
# CR (complete responders) [4, 8]: 0/0/0
# PR (partial responders) [4, 8]: 0/0/0
# TFS (tumor-free survivors) [4, 8]: 0/0/0
% TGI ([4]; CTG-0192, 3 mg/kg IV Q7Dx5, Day 34): 36%
Day 34 Tumor Volume Mean TV ± SEM ([4]; CTG-0192, BT5528 3 mg/kg IV Q7Dx5, Day 34, n=2): 740 ± 386 mm^3
